# Measurements from patent publication US20230000842A1, “METHODS OF TREATING CARTILAGE DISORDERS THROUGH INHIBITION OF CLK AND DYRK” (SAMUMED, LLC, priority 2019, published 2023).
# pEC50: −log10 of the molar value.
# Legend:
# [1] = tested on: primary human mesenchymal stem cells (hMSCs); test: Chondrogenesis screening using primary human mesenchymal stem cells; type: cell-based; settings: Homo sapiens, Mesenchymal stem cells, hMSC chondrogenesis; for Emax: maximum activity relative to TGF-β3 (10 ng/mL) positive control, read-out: Max. Activity as % TGF-β3 activity; for EC50: concentration required to induce 50% levels of chondrogenesis with TGF-β3 as positive control, read-out: Conc (nM) of 50% TGF-β3 activity
# Summary of the method: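 Derived values are EC50 for 50% chondrogenesis, maximal activity and the dose giving it. These come from nodule area in passage 3–6 primary hMSCs, expressed as fold change over the mean of 3 same-plate DMSO wells, 2–3 replicates per concentration. TGF-β3 served as positive control.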
# [2] = tested on: Wnt pathway activity (SW480 colon carcinoma cells stably expressing the Sp5-Luc reporter); test: Wnt pathway activity screening assay (Sp5-Luc reporter gene assay); settings: Homo sapiens, SW480, Table 4; SW480 cells stably expressing Sp5-Luc reporter, 10-point dose-response from 10 μM, 36 to 48 hours
# CLK3 kinase = CLK3 kinase (Homo sapiens, UniProt P49761); test: CLK3 kinase activity assay (Z-lyte FRET); type: biochemical; settings: Z-lyte Ser/Thr 18 peptide, 156 μM ATP, 1 h at room temperature;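 note: kinase activity read as coumarin/fluorescein emission ratio by FRET, unphosphorylated peptide as 0% and phosphorylated peptide as 100% control, values from non-linear regression of dose-response curves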
# CLK3 kinase, sequence (P49761 whole entry): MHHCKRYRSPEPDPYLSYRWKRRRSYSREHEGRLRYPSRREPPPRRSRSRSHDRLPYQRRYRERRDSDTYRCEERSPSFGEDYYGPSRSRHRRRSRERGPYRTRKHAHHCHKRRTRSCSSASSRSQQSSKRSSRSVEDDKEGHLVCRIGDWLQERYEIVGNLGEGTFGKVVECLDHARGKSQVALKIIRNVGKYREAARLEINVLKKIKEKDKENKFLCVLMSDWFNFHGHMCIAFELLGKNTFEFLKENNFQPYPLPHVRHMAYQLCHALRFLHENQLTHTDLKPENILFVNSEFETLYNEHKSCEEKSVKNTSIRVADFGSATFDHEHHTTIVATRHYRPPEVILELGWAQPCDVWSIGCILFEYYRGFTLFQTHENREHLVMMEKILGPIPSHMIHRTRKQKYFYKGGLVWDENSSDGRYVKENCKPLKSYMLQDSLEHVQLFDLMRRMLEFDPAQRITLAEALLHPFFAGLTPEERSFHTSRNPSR
# CLK2 kinase = CLK2 kinase (Homo sapiens, UniProt P49760); test: CLK2 kinase activity assay (Z-lyte FRET); type: biochemical; settings: Z-lyte Ser/Thr 6 peptide, 60 μM ATP, 1 h at room temperature;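 note: FRET read-out as coumarin to fluorescein emission ratio, unphosphorylated peptide as 0% and phosphorylated peptide as 100% controls, duplicate reactions, non-linear regression fit of dose-response curves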
# CLK2 kinase, sequence (P49760 whole entry): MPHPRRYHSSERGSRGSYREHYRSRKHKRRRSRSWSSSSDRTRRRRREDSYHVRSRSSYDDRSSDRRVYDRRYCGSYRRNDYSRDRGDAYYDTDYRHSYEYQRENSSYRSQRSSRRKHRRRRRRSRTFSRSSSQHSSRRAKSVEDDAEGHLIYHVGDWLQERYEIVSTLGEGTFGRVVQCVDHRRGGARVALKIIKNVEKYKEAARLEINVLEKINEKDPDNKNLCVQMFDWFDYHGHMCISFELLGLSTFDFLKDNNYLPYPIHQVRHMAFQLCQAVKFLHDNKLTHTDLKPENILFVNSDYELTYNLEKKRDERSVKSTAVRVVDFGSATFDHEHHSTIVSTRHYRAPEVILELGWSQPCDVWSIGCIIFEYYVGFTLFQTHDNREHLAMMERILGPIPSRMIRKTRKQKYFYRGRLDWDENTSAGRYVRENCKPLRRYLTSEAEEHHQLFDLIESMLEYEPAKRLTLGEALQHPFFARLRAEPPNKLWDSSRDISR
Compound,pEC50 [2],pEC50 (CLK3 kinase),pEC50 (CLK2 kinase),EC50 [1] [nM],Emax [1] [%]
Cc1ccncc1-c1ccc2[nH]nc(-c3cc4c(-c5cccnc5)cncc4[nH]3)c2n1 [compound 346],< 5.00,6.88,8.40,10,149
CCCCC(=O)Nc1cncc(-c2cc3c(-c4cc5c(-c6cccnc6)ccnc5[nH]4)n[nH]c3cn2)c1 [compound 351],< 5.00,5.01,8.40,10,52.8
CC(C)CC(=O)Nc1cncc(-c2cnc3[nH]nc(-c4cc5c(-c6cccnc6)ccnc5[nH]4)c3c2)c1 [compound 352],< 5.00,5.01,8.52,,43.5
CC(C)(C)CC(=O)Nc1cncc(-c2cnc3[nH]nc(-c4cc5c(-c6cccnc6)cncc5[nH]4)c3c2)c1 [compound 353],< 5.00,7.07,8.52,,37.3
O=C(Nc1cncc(-c2ccc3[nH]nc(-c4cc5c(-c6cccnc6)cncc5[nH]4)c3c2)c1)c1ccccc1 [compound 358],< 5.00,7.15,8.15,,68.5
CC(C)Nc1cncc(-c2ccc3[nH]nc(-c4cc5c(-c6cccnc6)ccnc5[nH]4)c3c2)c1 [compound 361],< 5.00,6.79,8.30,,45.5
CC(C)Nc1cncc(-c2cnc3[nH]nc(-c4cc5c(-c6cccnc6)ccnc5[nH]4)c3c2)c1 [compound 362],< 5.00,6.53,8.40,10,135
CC(C)Nc1cncc(-c2cc3c(-c4cc5c(-c6cccnc6)ccnc5[nH]4)n[nH]c3cn2)c1 [compound 363],< 5.00,5.01,8.10,10,77
CCNCc1cncc(-c2ccc3[nH]nc(-c4cc5c(-c6cccnc6)ccnc5[nH]4)c3c2)c1 [compound 365],< 5.00,6.35,7.89,,28.7
CCNCc1cncc(-c2cnc3[nH]nc(-c4cc5c(-c6cccnc6)ccnc5[nH]4)c3c2)c1 [compound 366],< 5.00,7.13,8.40,10,91.8
c1cncc(-c2ccnc3[nH]c(-c4n[nH]c5cnc(-c6cncc(CN7CCCC7)c6)cc45)cc23)c1 [compound 369],< 5.00,6.99,8.05,,16.7
FC1(F)CCN(Cc2cncc(-c3ccc4[nH]nc(-c5cc6c(-c7cccnc7)cncc6[nH]5)c4n3)c2)C1 [compound 371],5.41,6.39,7.96,,23.3
c1cncc(-c2ccnc3[nH]c(-c4n[nH]c5ncc(-c6cncc(CN7CCCCC7)c6)cc45)cc23)c1 [compound 372],< 5.00,7.16,8.70,,43.9
c1cncc(-c2cncc3[nH]c(-c4n[nH]c5ncc(-c6cncnc6)cc45)cc23)c1 [compound 373],< 5.00,6.81,8.40,,24.1
c1cncc(-c2ccnc3[nH]c(-c4n[nH]c5cnc(-c6cncnc6)cc45)cc23)c1 [compound 374],< 5.00,5.01,7.72,,49.6
Nc1cncc(-c2cnc3[nH]nc(-c4cc5c(-c6ccncc6)nccc5[nH]4)c3c2)c1 [compound 378],< 5.00,7.30,8.70,30,53.5
Nc1cncc(-c2cnc3[nH]nc(-c4cc5c(-c6ccncc6)cncc5[nH]4)c3c2)c1 [compound 379],< 5.00,7.16,8.40,,31.5
Nc1cncc(-c2ccc3[nH]nc(-c4cc5c(-c6ccncc6)ccnc5[nH]4)c3n2)c1 [compound 382],< 5.00,7.20,8.40,,26.9
CCCC(=O)Nc1cncc(-c2ccc3[nH]nc(-c4cc5c(-c6ccncc6)cncc5[nH]4)c3c2)c1 [compound 383],< 5.00,7.34,8.52,,124
CC(C)C(=O)Nc1cncc(-c2cc3c(-c4cc5c(-c6ccncc6)nccc5[nH]4)n[nH]c3cn2)c1 [compound 385],< 5.00,6.41,7.92,,32.1
CCCCC(=O)Nc1cncc(-c2cnc3[nH]nc(-c4cc5c(-c6ccncc6)cncc5[nH]4)c3c2)c1 [compound 386],< 5.00,6.70,8.10,,70.4
CC(C)CC(=O)Nc1cncc(-c2ccc3[nH]nc(-c4cc5c(-c6ccncc6)nccc5[nH]4)c3c2)c1 [compound 387],< 5.00,6.88,8.30,,95.5
CC(C)(C)C(=O)Nc1cncc(-c2ccc3[nH]nc(-c4cc5c(-c6ccncc6)ccnc5[nH]4)c3c2)c1 [compound 390],< 5.00,6.86,7.96,,44.4
CC(C)(C)C(=O)Nc1cncc(-c2cnc3[nH]nc(-c4cc5c(-c6ccncc6)cncc5[nH]4)c3c2)c1 [compound 391],< 5.00,7.21,8.40,,33.6

# Now those with a higher pEC50 [2], led by results:
pEC50 [2],pEC50 (CLK3 kinase),pEC50 (CLK2 kinase),EC50 [1] [nM],Compound,Emax [1] [%]
5.65,6.97,8.52,,Cc1ccncc1-c1cnc2[nH]nc(-c3cc4c(-c5cccnc5)cncc4[nH]3)c2c1 [compound 345],17.4
6.74,6.27,8.52,10,CCC(=O)Nc1cncc(-c2cnc3[nH]nc(-c4cc5c(-c6cccnc6)cccc5[nH]4)c3c2)c1 [compound 348],671
6.59,7.43,8.70,,CC(C)C(=O)Nc1cncc(-c2ccc3[nH]nc(-c4cc5c(-c6cccnc6)cncc5[nH]4)c3c2)c1 [compound 349],34.5
6.56,5.72,7.96,10,CC(C)C(=O)Nc1cncc(-c2cc3c(-c4cc5c(-c6cccnc6)cccc5[nH]4)n[nH]c3cn2)c1 [compound 350],201
6.48,6.27,7.92,100,O=C(Nc1cncc(-c2cc3c(-c4cc5c(-c6cccnc6)cccc5[nH]4)n[nH]c3cn2)c1)C1CC1 [compound 354],308
6.70,6.82,8.10,,O=C(Nc1cncc(-c2cnc3[nH]nc(-c4cc5c(-c6cccnc6)cccc5[nH]4)c3c2)c1)C1CCC1 [compound 355],41.3
5.87,7.11,8.22,,O=C(Nc1cncc(-c2ccc3[nH]nc(-c4cc5c(-c6cccnc6)cncc5[nH]4)c3c2)c1)C1CCCC1 [compound 356],45.5
6.38,7.37,8.52,,O=C(Nc1cncc(-c2ccc3[nH]nc(-c4cc5c(-c6cccnc6)nccc5[nH]4)c3c2)c1)c1ccccc1 [compound 357],19.4
7.00,6.02,8.22,10,CC(C)Nc1cncc(-c2ccc3[nH]nc(-c4cc5c(-c6cccnc6)cccc5[nH]4)c3c2)c1 [compound 359],226
6.17,6.48,8.40,,CC(C)Nc1cncc(-c2ccc3[nH]nc(-c4cc5c(-c6cccnc6)cncc5[nH]4)c3c2)c1 [compound 360],41.9
6.59,6.86,8.00,,CC(C)Nc1cncc(-c2ccc3[nH]nc(-c4cc5c(-c6cccnc6)ccnc5[nH]4)c3n2)c1 [compound 364],47.2
6.38,6.99,8.40,,CN(C)Cc1cncc(-c2ccc3[nH]nc(-c4cc5c(-c6cccnc6)cccc5[nH]4)c3n2)c1 [compound 368],35.9
6.28,7.00,8.22,,FC1(F)CCN(Cc2cncc(-c3ccc4[nH]nc(-c5cc6c(-c7cccnc7)ccnc6[nH]5)c4c3)c2)C1 [compound 370],20.3
6.60,7.00,8.22,,Cn1cc(-c2ccc3[nH]nc(-c4cc5c(-c6cccnc6)cncc5[nH]4)c3c2)cn1 [compound 375],65.2
6.18,6.95,8.15,,Nc1cncc(-c2ccc3[nH]nc(-c4cc5c(-c6ccncc6)nccc5[nH]4)c3c2)c1 [compound 377],76.8
6.06,7.54,8.40,,CC(C)CC(=O)Nc1cncc(-c2ccc3[nH]nc(-c4cc5c(-c6ccncc6)cncc5[nH]4)c3c2)c1 [compound 388],70.2
6.15,5.00,8.05,30,CC(C)CC(=O)Nc1cncc(-c2cnc3[nH]nc(-c4cc5c(-c6ccncc6)cccc5[nH]4)c3c2)c1 [compound 389],71.4
